# Reference: patent publication US11117894B2, “Pyridopyrazine compounds and uses thereof” (CITY OF HOPE, priority 2017, dated 2021)
# Key:
# [1] = system: A2058 melanoma; test: MTS cell viability assay, A2058 melanoma cell line; format: cell-based; conditions: 48 h; for Viability (% CTL) at 10 μM A2058 melanoma: Table 2, 10 μM; for Viability % CTL A2058 melanoma (10 μM): Table 4, 10 μM; for Viability % CTL A2058 melanoma: Table 1, screened at 10 μM
# Experimental: (§1) MTS assays were performed for cell viability. To determine if novel pyridopyrazine derivatives have antitumor activities, compounds were screened at 10 μM final concentration with A2058 melanoma and DU145 prostate cancer cell lines. Compounds #16 and #17 were selected to determine IC50 values against lung cancer cell lines, including A549, DMS273, H69, H513, H2461, DMS114, H358 and H2596. In this assay, cells (5000/well) were seeded in 96-well plates, incubated overnight at 37° C. in 5% CO2, and exposed to 10 μM of compounds or in a dose-dependent manner for 48 h. After 48 h treatment with compounds, MTS dye (20 μL/well) was added to 96-well plates. Viable cell numbers were determined by tetrazolium conversion to its formazan dye. Absorbance was measured at 490 nm using an automated ELISA plate reader. Dimethyl sulfoxide (DMSO) was used as the vehicle control. Each experiment was conducted in triplicate. IC50 values were determined using CalcuSyn software (Biosoft).
# [2] = system: DU145 prostate cancer; test: MTS cell viability assay, DU145 prostate cancer cell line; format: cell-based; conditions: DU145 prostate, 48 h; for Viability (% CTL) at 10 μM DU145 prostate: Table 2; for Viability % CTL DU145 prostate (10 μM ): Table 4; for Viability % CTL DU145 prostate: Table 1, screened at 10 μM
# Experimental: as §1
Structure (SMILES),Viability % CTL A2058 melanoma (10 μM) [1],Viability % CTL DU145 prostate (10 μM ) [2],other results
"Cc1nc2nc(Nc3ccccc3)cnc2cc1N [Compound 7, 6-Methyl-N^3-phenylpyrido[2,3-b]pyrazine-3,7-diamine]",–,–,melting point: > 300 °C (dec.); Viability (% CTL) at 10 μM A2058 melanoma [1]: 98 % CTL; Viability (% CTL) at 10 μM DU145 prostate [2]: 76 % CTL
"Cc1nc2nc(Nc3ccccc3)cnc2cc1NC(=O)c1ccc(N)cc1 [Compound 13, 4-Amino-N-(6-methyl-3-(phenylamino)pyrido[2,3-b]pyrazin-7-yl)benzamide]",–,–,melting point: 265 °C; Viability (% CTL) at 10 μM A2058 melanoma [1]: 84 % CTL; Viability (% CTL) at 10 μM DU145 prostate [2]: 77 % CTL
"CC(=O)Nc1cccc(Nc2cnc3cc(NC(=O)Nc4cccc(C(F)(F)F)c4)c(C)nc3n2)c1 [Compound 31, N-(3-((6-Methyl-7-(3-(3-(trifluoromethyl)phenyl)ureido)pyrido[2,3-b]pyrazin-3-yl)amino)phenyl)acetamide]",119 % CTL,62 % CTL,–
"CC(=O)Nc1ccc(Nc2cnc3cc(NC(=O)Nc4ccc(F)c(Cl)c4)c(C)nc3n2)cc1 [Compound 32, N-(4-((7-(3-(3-Chloro-4-fluorophenyl)ureido)-6-methylpyrido[2,3-b]pyrazin-3-yl)amino)phenyl)acetamide]",65 % CTL,76 % CTL,–
"CC(=O)Nc1ccc(Nc2cnc3cc(NC(=O)Nc4cccc(C(F)(F)F)c4)c(C)nc3n2)cc1 [Compound 33, N-(4-((6-Methyl-7-(3-(3-(trifluoromethyl)phenyl)ureido)pyrido[2,3-b]pyrazin-3-yl)amino)phenyl)acetamide]",109 % CTL,55 % CTL,–
"COc1cc(Nc2cnc3cc(NC(=O)Nc4cccc(C(F)(F)F)c4)c(C)nc3n2)cc(OC)c1OC [Compound 34, 1-(6-Methyl-3-((3,4,5-trimethoxyphenyl)amino)pyrido[2,3-b]pyrazin-7-yl)-3-(3-(trifluoromethyl)phenyl)urea]",116 % CTL,81 % CTL,–
"Cc1nc2nc(Nc3ccc(C(=O)O)cc3)cnc2cc1NC(=O)Nc1ccc(F)c(Cl)c1 [Compound 35, 4-((7-(3-(3-Chloro-4-fluorophenyl)ureido)-6-methylpyrido[2,3-b]pyrazin-3-yl)amino)benzoic acid]",98 % CTL,82 % CTL,–
"Cc1nc2nc(Nc3ccc(C(=O)O)cc3)cnc2cc1NC(=O)Nc1cccc(C(F)(F)F)c1 [Compound 36, 4-((6-Methyl-7-(3-(3-(trifluoromethyl)phenyl)ureido)pyrido[2,3-b]pyrazin-3-yl)amino)benzoic acid]",113 % CTL,77 % CTL,–
Cc1nc2nc(Oc3ccccc3)cnc2cc1[N+](=O)[O-] [Compound 55C],–,–,Viability % CTL A2058 melanoma [1]: 91 % CTL; Viability % CTL DU145 prostate [2]: 95 % CTL
Cc1nc2nc(Oc3ccccc3)cnc2cc1N [Compound 56D],–,–,Viability % CTL A2058 melanoma [1]: 81 % CTL; Viability % CTL DU145 prostate [2]: 108 % CTL
Cc1nc2nc(Oc3ccccc3)cnc2cc1NC(=O)Nc1ccccc1 [Compound 57C],–,–,Viability % CTL A2058 melanoma [1]: 94 % CTL; Viability % CTL DU145 prostate [2]: 126 % CTL
